These results are taken from paper PMC11510666, “Thiazolidinedione-Conjugated Lupeol Derivatives as Potent Anticancer Agents Through a Mitochondria-Mediated Apoptotic Pathway” (Molecules, 2024).

For experiment [1], the system named is human breast cancer MCF-7. The experiment can be described thus: MTT antiproliferative assay, MCF-7. It counts as cell-based. The settings on record: mean ± SD, three independent experiments. The method, then:
(§1) These cell lines were cultured in Dulbecco's Modified Eagle Medium containing 10% (v/v) fetal bovine serum (FBS, Wisent) and 1% (v/v) Penicillin-Streptomycin Solution mixture (Beyotime, Shanghai, China) at 37 °C under 5% CO2. An MTT assay evaluated the cytotoxicity of lupeol derivatives toward the A549, MCF-7, HepG2, and LO2 cell lines. The cells were inoculated into 96-well plates (3 × 10^3 cells/well) and cultured for 24 h at 37 °C in 5% CO2. After that, a gradient concentration of the test drug was added to continue the incubation for 48 h. Subsequently, the MTT solution continued to incubate with the cells for 4 h. Afterward, the upper waste layer was discarded, and DMSO was added ([…], Tianjin, China). After the formazan completely dissolved, the absorbance of each well at 490 nm was measured with a microplate reader. The mean values were derived from three independent experiments.

Experiment [2] deals with human hepatocarcinoma HepG2. The experiment can be described thus: MTT antiproliferative assay, HepG2. It counts as cell-based. Particulars: for IC50: MTT, 48 h, mean ± SD, three independent experiments; for SI (selectivity index): IC50 values on L02 cells/HepG2 cells. The method, then:
as §1

For a further experiment, the system named is human lung cancer A549. The experiment can be described thus: MTT antiproliferative assay, A549. It counts as cell-based. The settings on record: 48 h, mean ± SD, three independent experiments. As to the method: as §1
(Tetrazolium assays rely on reduction of a dye to a coloured formazan, in cell work by metabolically active cells.)

The subject of another experiment is human hepatic LO2 cells. The settings on record: read-out: IC50 LO2; MTT, 48 h, mean ± SD, three independent experiments. As to the method: as §1

The structures appear in SMILES notation.

The term IC50 denotes the midpoint of a concentration-inhibition curve. Consider `N.N.[Cl][Pt][Cl]` [Cisplatin, cisplatin, reference compound], for which the IC50 is 5.79 ± 0.49 µM in experiment [1] (48 h), 4.65 ± 0.54 µM in experiment [2] and 4.96 ± 0.48 µM with human lung cancer A549.
For the molecule `C=C(C)C1CCC2(C)CCC3(C)C(CCC4C5(C)CCC(OC(=O)CN6C(=O)SC(=Cc7ccc(F)cc7)C6=O)C(C)(C)C5CCC43C)C12` (centres unmarked) [Compound 6a, Lupeol-3-[(1-Ethyl)-2]-5-(4-Fluorobenzylidene)-2,4-Thiazolidinedione], the IC50 in the experiment with human hepatic LO2 cells was determined as 92.6 ± 1.03 µM; in experiment [1] (48 h), 24 ± 1.87 µM; in experiment [2], 22.7 ± 1.59 µM; in the experiment with human lung cancer A549, 17.3 ± 1.58 µM. In addition, the “SI (selectivity index)” value in experiment [2] is given as 4.07.
The matching figures for `C=C(C)C1CCC2(C)CCC3(C)C(CCC4C5(C)CCC(OC(=O)CN6C(=O)SC(=Cc7ccc(Cl)cc7)C6=O)C(C)(C)C5CCC43C)C12` (centres unmarked) [Compound 6b, Lupeol-3-[(1-Ethyl)-2]-5-(4-Chlorobenzylidene)-2,4-Thiazolidinedione]: 70.5 ± 1.51 µM, 13.8 ± 0.75 µM, 16.6 ± 1.38 µM, 14.2 ± 1.72 µM and 4.25.
The matching figures for `C=C(C)C1CCC2(C)CCC3(C)C(CCC4C5(C)CCC(OC(=O)CN6C(=O)SC(=Cc7ccc(C)cc7)C6=O)C(C)(C)C5CCC43C)C12` (centres unmarked) [Compound 6c, Lupeol-3-[(1-Ethyl)-2]-5-(4-Methylbenzylidene)-2,4-Thiazolidinedione]: 76.4 ± 1.22 µM, 22.1 ± 1.42 µM, 18.2 ± 1.27 µM, 10.4 ± 0.82 µM and 4.2.
In the case of `C=C(C)C1CCC2(C)CCC3(C)C(CCC4C5(C)CCC(OC(=O)CN6C(=O)SC(=Cc7ccc(C(C)(C)C)cc7)C6=O)C(C)(C)C5CCC43C)C12` (centres unmarked) [Compound 6d, Lupeol-3-[(1-Ethyl)-2]-5-(4-Tert-Butylphenyl)-2,4-Thiazolidinedione], the IC50 with human hepatic LO2 cells came out at 39.2 ± 1.07 µM; in experiment [1] (48 h) it was 15.4 ± 1.22 µM; in experiment [2], 10.9 ± 0.78 µM; in the experiment with human lung cancer A549, 14.2 ± 1.43 µM. Also, the “SI (selectivity index)” value in experiment [2] is on record as 3.61.
On to `C=C(C)C1CCC2(C)CCC3(C)C(CCC4C5(C)CCC(OC(=O)CN6C(=O)SC(=Cc7ccccc7OC)C6=O)C(C)(C)C5CCC43C)C12` (centres unmarked) [Compound 6e, Lupeol-3-[(1-Ethyl)-2]-5-(2-Methoxybenzylidene)-2,4-Thiazolidinedione], for which the IC50 in the experiment on human hepatic LO2 cells stood at 70.8 ± 0.93 µM; in experiment [1] (48 h) it was 12.5 ± 0.74 µM; in experiment [2], 15.5 ± 0.86 µM; in the experiment on human lung cancer A549, 9.43 ± 0.74 µM. Moreover, the “SI (selectivity index)” value in experiment [2] is recorded as 4.57.
The matching figures for `C=C(C)C1CCC2(C)CCC3(C)C(CCC4C5(C)CCC(OC(=O)CN6C(=O)SC(=Cc7ccc(OC)c(OC)c7OC)C6=O)C(C)(C)C5CCC43C)C12` (centres unmarked) [Compound 6f, Lupeol-3-[(1-Ethyl)-2]-5-(2,3,4-Trimethoxybenzylidene)-2,4-Thiazolidinedione]: 85.3 ± 1.12 µM, 16.1 ± 0.89 µM, 19.2 ± 1.57 µM, 10.3 ± 0.86 µM and 4.44.
The matching figures for `C=C(C)C1CCC2(C)CCC3(C)C(CCC4C5(C)CCC(OC(=O)CN6C(=O)SC(=Cc7ccco7)C6=O)C(C)(C)C5CCC43C)C12` (centres unmarked) [Compound 6g, Lupeol-3-[(1-Ethyl)-2]-5-(2-Furanylmethylene)-2,4-Thiazolidinedione]: 60.6 ± 1.84 µM, 12.8 ± 0.22 µM, 15.3 ± 1.32 µM, 14.9 ± 1.21 µM and 3.95.
The matching figures for `C=C(C)C1CCC2(C)CCC3(C)C(CCC4C5(C)CCC(OC(=O)CN6C(=O)SC(=Cc7cccs7)C6=O)C(C)(C)C5CCC43C)C12` (centres unmarked) [Compound 6h, Lupeol-3-[(1-Ethyl)-2]-5-(2-Thienylmethylene)-2,4-Thiazolidinedione]: 58.4 ± 0.78 µM, 11.3 ± 0.85 µM, 12.8 ± 0.97 µM, 14 ± 1.39 µM and 4.55.
For the molecule `C=C(C)C1CCC2(C)CCC3(C)C(CCC4C5(C)CCC(OC(=O)CN6C(=O)SC(=CC(C)C)C6=O)C(C)(C)C5CCC43C)C12` (centres unmarked) [Compound 6i, Lupeol-3-[(1-Ethyl)-2]-5-(2-Methylpropylidene)-2,4-Thiazolidinedione], the IC50 in the experiment on human hepatic LO2 cells turned out to be 45.5 ± 1.33 µM; in experiment [1] (48 h), 8.7 ± 0.12 µM; in experiment [2], 9.48 ± 0.71 µM; in the experiment on human lung cancer A549 it was 11.3 ± 0.91 µM. Further, the “SI (selectivity index)” value in experiment [2] turned out to be 4.80.
The matching figures for `C=C(C)C1CCC2(C)CCC3(C)C(CCC4C5(C)CCC(OC(=O)N6CCN(C(=O)CN7C(=O)SC(=Cc8ccc(F)cc8)C7=O)CC6)C(C)(C)C5CCC43C)C12` (centres unmarked) [Compound 9a, Lupeol-3-[(1-Piperazinyl)-4]-5-(4-Fluorobenzylidene)-2,4-Thiazolidinedione]: 79.1 ± 1.25 µM, 19.1 ± 1.78 µM, 20.5 ± 1.62 µM, 18.7 ± 1.25 µM and 3.87.
The matching figures for `C=C(C)C1CCC2(C)CCC3(C)C(CCC4C5(C)CCC(OC(=O)N6CCN(C(=O)CN7C(=O)SC(=Cc8ccc(Cl)cc8)C7=O)CC6)C(C)(C)C5CCC43C)C12` (centres unmarked) [Compound 9b, Lupeol-3-[(1-Piperazinyl)-4]-5-(4-Chlorobenzylidene)-2,4-Thiazolidinedione]: 80.5 ± 1.79 µM, 14 ± 0.87 µM, 18.1 ± 1.73 µM, 15.5 ± 0.64 µM and 4.44.
The like results for `C=C(C)C1CCC2(C)CCC3(C)C(CCC4C5(C)CCC(OC(=O)N6CCN(C(=O)CN7C(=O)SC(=Cc8ccc(C)cc8)C7=O)CC6)C(C)(C)C5CCC43C)C12` (centres unmarked) [Compound 9c, Lupeol-3-[(1-Piperazinyl)-2]-5-(4-Methylbenzylidene)-2,4-Thiazolidinedione] were, in that order, 65.1 ± 0.93 µM, 16.3 ± 0.76 µM, 15.7 ± 1.52 µM, 12.7 ± 0.68 µM and 4.14.
Regarding `C=C(C)C1CCC2(C)CCC3(C)C(CCC4C5(C)CCC(OC(=O)N6CCN(C(=O)CN7C(=O)SC(=Cc8ccc(C(C)(C)C)cc8)C7=O)CC6)C(C)(C)C5CCC43C)C12` (centres unmarked) [Compound 9d, Lupeol-3-[(1-Piperazinyl)-4]-5-(4-Tert-Butylphenyl)-2,4-Thiazolidinedione], the IC50 is 42.2 ± 1.28 µM in the experiment with human hepatic LO2 cells, 18.1 ± 1.93 µM in experiment [1] (48 h), 9.52 ± 0.61 µM in experiment [2] and 11.7 ± 0.75 µM with human lung cancer A549. Moreover, the “SI (selectivity index)” value in experiment [2] was 4.43.
The like results for `C=C(C)C1CCC2(C)CCC3(C)C(CCC4C5(C)CCC(OC(=O)N6CCN(C(=O)CN7C(=O)SC(=Cc8ccccc8OC)C7=O)CC6)C(C)(C)C5CCC43C)C12` (centres unmarked) [Compound 9e, Lupeol-3-[(1-Piperazinyl)-4]-5-(2-Methoxybenzylidene)-2,4-Thiazolidinedione] were, in that order, 63.3 ± 1.14 µM, 18.6 ± 1.27 µM, 16.5 ± 1.26 µM, 10.4 ± 0.38 µM and 3.83.
The like results for `C=C(C)C1CCC2(C)CCC3(C)C(CCC4C5(C)CCC(OC(=O)N6CCN(C(=O)CN7C(=O)SC(=Cc8ccc(OC)c(OC)c8OC)C7=O)CC6)C(C)(C)C5CCC43C)C12` (centres unmarked) [Compound 9f, Lupeol-3-[(1-Piperazinyl)-4]-5-(2,3,4-Trimethoxybenzylidene)-2,4-Thiazolidinedione] were, in that order, 56.1 ± 0.77 µM, 9.19 ± 0.46 µM, 10.8 ± 0.45 µM, 9.24 ± 0.48 µM and 5.19.
The like results for `C=C(C)C1CCC2(C)CCC3(C)C(CCC4C5(C)CCC(OC(=O)N6CCN(C(=O)CN7C(=O)SC(=Cc8ccco8)C7=O)CC6)C(C)(C)C5CCC43C)C12` (centres unmarked) [Compound 9g, Lupeol-3-[(1-Piperazinyl)-4]-5-(2-Furanylmethylene)-2,4-Thiazolidinedione] were, in that order, 62.77 ± 0.62 µM, 12 ± 0.75 µM, 15 ± 0.74 µM, 9.91 ± 0.42 µM and 4.19.
Regarding `C=C(C)C1CCC2(C)CCC3(C)C(CCC4C5(C)CCC(OC(=O)N6CCN(C(=O)CN7C(=O)SC(=Cc8cccs8)C7=O)CC6)C(C)(C)C5CCC43C)C12` (centres unmarked) [Compound 9h, Lupeol-3-[(1-Piperazinyl)-4]-5-(2-Thienylmethylene)-2,4-Thiazolidinedione], the IC50 in the experiment with human hepatic LO2 cells was found to be 68.9 ± 1.19 µM; in experiment [1] (48 h), 13.8 ± 0.58 µM; in experiment [2] it was 15.3 ± 0.98 µM; in the experiment on human lung cancer A549 it was 16.4 ± 1.69 µM. Further, the “SI (selectivity index)” value in experiment [2] amounted to 4.50.
The matching figures for `C=C(C)C1CCC2(C)CCC3(C)C(CCC4C5(C)CCC(OC(=O)N6CCN(C(=O)CN7C(=O)SC(=CC(C)C)C7=O)CC6)C(C)(C)C5CCC43C)C12` (centres unmarked) [Compound 9i, Lupeol-3-[(1-Piperazinyl)-4]-5-(2-Methylpropylidene)-2,4-Thiazolidinedione]: 35.4 ± 0.72 µM, 20.1 ± 1.59 µM, 6.91 ± 0.31 µM, 13.8 ± 0.84 µM and 5.12.
In the case of `C=C(C)[C@@H]1CC[C@]2(C)CC[C@]3(C)[C@H](CC[C@@H]4[C@@]5(C)CC[C@H](O)C(C)(C)[C@@H]5CC[C@]43C)[C@@H]12` [Lupeol], the IC50 in experiment [1] (Homo sapiens, MCF7, 48 h) worked out at 62 ± 1.79 µM; in experiment [2] (Homo sapiens, HepG2), 43.6 ± 1.37 µM.
